Data from US8609635B2, “Fused tricyclic silyl compounds and methods of use thereof for the treatment of viral diseases” (priority 2010, dated 2013).

What was measured:
[1] = Pharmacokinetic analysis in rats; assay type: in vivo, Male Sprague-Dawley rats; conditions: Rat, dihydrochloride salt, 5 mpk/PO, 2.5 mpk/IV
Procedure: (§1) Various pharmacokinetic parameters for compound 56 were measured in rats, dogs and monkeys as described below.
Male Sprague-Dawley rats (Charles River, Co.) were pre-cannulated (femoral artery) in order to facilitate precise blood sampling times, to increase throughput and to reduce the stress on the animals caused by serial bleedings. Following an overnight fast, rats were dosed with the dihydrochloride salt of compound 56 orally at 5 mg/kg as a suspension in 0.4% hydroxylpropyl methylcellulose (HPMC) or intravenously at 2.5 mg/kg as a solution in 20% hydroxypropyl-β-cyclodextrin (20% HPβCD). Blood was collected into heparin-containing tubes serially from each animal at 0.25, 0.5, 1, 2, 4, 6, 8, 24 and 48 hr (PO), and 0.167, 0.25, 0.5, 1, 2, 4, 6, 8, 24 and 48 hr (IV) post-dosing and centrifuged to generate plasma. The plasma samples were stored at […] until analysis.
(§2) Collected plasma samples were analyzed for the presence of compound 56 using LC-MS/MS as described below.
(§3) The HPLC/API-MS/MS system for the example data consisted of a HPLC pumping system and a auto sampler with the sample tray refrigeration option connected directly to a triple quadrupole mass spectrometer with an API source. Typical HPLC methods for the example data was based on a fast gradient of two solvents: solvent A consisted of 0.1% formic acid in water, and solvent B consisted of 0.1% formic acid in acetonitrile. A fast linear gradient (start at 90% A for 0.2 min, ramp to 95% B from 0.2 to 0.5 min, hold at 95% B […], then ramp back to 90% A from 1.0 to 1.1 min, then hold at, […] from 1.1 to 1.2 min) was used. The flow rate for the HPLC system was set to 1 mL/min throughout the HPLC gradient; the HPLC column was a Halo C18 column (2.7 micron particle size, 50×2.1 mm). The example compounds were analyzed by positive ion atmospheric pressure chemical ionization tandem mass spectrometry (APCI-MS/MS). As a general procedure, selected reaction monitoring (SRM) methods were developed for each compound prior to analysis of the plasma samples. Normally, the individual SRM transitions were based on a fragmentation from the protonated molecule ([MH].) to a characteristic product ion.
(§4) Using the methods described above, the following pharmacokinetic parameters were calculated in rats, dogs and monkeys and the results are summarized in the table below.

[2] = test system: HCV chimeric replicon with NS5A of genotype 2b (AB03090); assay: Cell-based HCV replicon assay (TaqMan), chimeric replicon genotype 2b (AB03090); conditions: Hepatitis C virus, 72 h, read-out: HCV replicon EC50 2b (AB03090), chimeric replicon 2b (AB03090); replicon RNA by TaqMan, day 3
Procedure: Measurement of inhibition by compounds of the present invention was performed using the HCV replicon system. Several different replicons encoding different HCV genotypes or mutations were used. In addition, potency measurements were made using different formats of the replicon assay, including different ways of measurements and different plating formats. See Jan M. Vrolijk et al., A replicons-based bioassay for the measurement of interferons in patients with chronic hepatitis C, 110 J. VIROLOGICAL METHODS 201 (2003); Steven S. Carroll et al., Inhibition of Hepatitis C Virus RNA Replication by 2′-Modified Nucleoside Analogs, 278(14) J. BIOLOGICAL […] 11979 (2003). However, the underlying principles are common to all of these determinations, and are outlined below.
Compounds of the present invention were assayed for cell-based anti-HCV activity using the following protocol. Replicon cells were seeded at 5000 cells/well in 96-well collagen I-coated Nunc plates in the presence of the test compound. Various concentrations of test compound, typically in 10 serial 2-fold dilutions, were added to the assay mixture, with the starting concentration ranging from 250 μM to 1 μM. The final concentration of DMSO was 0.5%, fetal bovine serum was 5%, in the assay media. Cells were harvested on day 3 by the addition of 1× cell lysis buffer (Ambion cat #8721). The replicon RNA level was measured using real time PCR (TaqMan® assay). The amplicon was located in 5B. The PCR primers were: 5B.2F, […] (SEQ. ID NO. 1); 5B.2R, […] (SEQ. ID NO. 2); the probe sequence was FAM-labeled […] (SEQ. ID NO. 3). GAPDH RNA was used as endogenous control and was amplified in the same reaction as NS5B (multiplex PCR) using primers and VIC-labeled probe recommended by the manufacturer (PE Applied Biosystem). The real-time RT-PCR reactions were run on ABI PRISM 7900HT Sequence Detection System using the following program: 48° C. for 30 minutes, 95° C. for 10 minutes, 40 cycles of 95° C. for 15 sec, 60° C. for 1 minute. The ΔCT values (CT5B-CTGAPDH) were plotted against the concentration of test compound and fitted to the sigmoid dose-response model using XLfit4 (MDL). […] Alternatively, to quantitate the absolute amount of replicon RNA, a standard curve was established by including serially diluted T7 transcripts of replicon RNA in the Taqman assay. All TaqMan® reagents were from PE Applied Biosystems. Such an assay procedure was described in detail in e.g. Malcolm et al., Antimicrobial Agents and Chemotherapy 50: 1013-1020 (2006).
Wherein gt1a_H77 was prepared as described in Yi et al., J Virol. 2004, 78(15):7904-15; gt1b_con1 was prepared as described in Lohmann et al., Science 1999, 285(5424):110-3; and gt2a_JFH was prepared as described in Kato et al., Gastroenterology. 2003, 125(6):1808-17. Chimeric replicons contain NS5A from patient isolates of genotypes 1a, 1b, 2b, 3a and 4a as indicated.

HCV replicon gt1b_con1 = assay: Cell-based HCV replicon assay (TaqMan), genotype 1b (Con1); conditions: Hepatitis C virus, 72 h; replicon 1b (Con1); replicon RNA by TaqMan, day 3
How it was run: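 Replicon cells seeded at 5000 cells/well with compound (10 serial 2-fold dilutions from 250 μM to 1 μM top dose; 0.5% DMSO, 5% FBS) and lysed on day 3. Replicon RNA quantified by multiplex TaqMan RT-PCR (NS5B amplicon, GAPDH control); ΔCT versus concentration fitted to sigmoid dose-response. Chimeras carry patient-isolate NS5A.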

[3] = Pharmacokinetic analysis in dogs; assay type: in vivo, male beagle dogs; conditions: Dog, dihydrochloride salt, 2 mpk/PO, 1 mpk/IV
Procedure: as §1
Following an overnight fast, male beagle dogs were dosed with the dihydrochloride salt of compound 56 orally at 2 mg/kg as a suspension in 0.4% hydroxylpropyl methylcellulose (HPMC) or intravenously at 1 mg/kg as a solution in 20% hydroxypropyl-β-cyclodextrin (20% HPβCD). For oral dosing, the animals were typically restrained by hand and dosed by oro-gastric intubation. Dogs were fed approximately 4 hours after dosing. Blood samples were collected from the jugular or cephalic vein at 0.25, 0.5, 1, 2, 4, 6, 8, 12, 24, 48, 72 and 96 hrs (PO) and 0.167, 0.25, 0.5, 1, 2, 4, 6, 8, 12, 24, 48, 72 and 96 hrs (IV) post-dosing and centrifuged to generate plasma. The plasma samples were stored at […] until analysis.
as §2, §3, §4

[4] = dose-normalized AUC between PO and IV

COC(=O)N[C@H](C(=O)N1CC(F)(F)C[C@H]1c1ncc(-c2ccc(-c3ccc4c(ccc5nc([C@@H]6C[Si](C)(C)CN6C(=O)[C@@H](NC(=O)OC)C(C)C)[nH]c54)c3)cc2)[nH]1)C(C)C [Compound 56]
Effective Half-Life [1]: 7.6 h | Systemic Clearance [1]: 5.6 mL/min/kg | Volume of Distribution [1]: 3.7 L/kg | Oral Bioavailability [1, 4]: 28% | EC50 [2]: 48 nM | EC50 (HCV replicon gt1b_con1): 0.003 nM | Effective Half-Life [3]: 18 h | Volume of Distribution [3]: 1.3 L/kg | Oral Bioavailability [3, 4]: 8.7% | clearance ([3]; male, beagle, plasma, 1 mg/kg, read-out: Systemic Clearance): 0.8 mL/min/kg
